# In patent publication US10556866B2, “ROR gamma (RORγ) modulators” (LEAD PHARMA HOLDING B.V., priority 2015, dated 2020):
# What was measured:
# RORγ = biological target: T1, RORγ (Homo sapiens, UniProt P51449); experiment: RORγ GAL4 reporter gene assay (luciferase readout); type: cell-based; settings: inhibition of RORγ (GAL4-RORγ-LBD) in 293FT cells, luciferase signal; read-out: mean pIC50 (converted)
# T1 construct: expressed in transfected cells; host or cells: 293FT cells (Invitrogen), expression vector pFN26A (Promega)
# T1 sequence (P51449 269-508 limits assumed): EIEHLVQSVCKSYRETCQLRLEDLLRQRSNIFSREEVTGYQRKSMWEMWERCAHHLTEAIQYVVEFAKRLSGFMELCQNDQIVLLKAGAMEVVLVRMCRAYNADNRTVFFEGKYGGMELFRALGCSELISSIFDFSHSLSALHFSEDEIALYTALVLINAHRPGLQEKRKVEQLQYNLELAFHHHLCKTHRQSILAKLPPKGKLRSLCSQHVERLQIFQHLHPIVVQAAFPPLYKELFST
# Protocol: Example inhibitors 1-38 were tested for their ability to inhibit RORγ activity in a RORγ GAL4 reporter gene assay. The assay procedure and results are described below.
# A GAL4 one-hybrid reporter system employing luciferase readout was established to determine inhibition of RORγ in 293FT cells. The RORγ ligand-binding domain (LBD) was fused to the yeast GAL4 DNA binding domain (DBD) and placed under the control of the human cytomegalovirus (CMV) immediate early promoter, using expression vector pFN26A (Promega) and standard recombinant DNA cloning methods. To serve as a control in the assay, a similar vector was generated in which the GAL4-DBD was fused to Herpes simplex virus protein 16 (VP16), a constitutive transcriptional activator.
# To monitor the inhibitory effect of compounds on RORγ, a transcriptional reporter construct was used. The pGL4.35 vector (Promega) contains nine copies of the GAL4 Upstream Activator Sequence (UAS). This sequence drives the transcription of the luciferase reporter gene luc2P in response to binding of a fusion protein containing the GAL4 DNA binding domain, as for example expressed by the GAL4-RORγ-LBD and GAL4-VP16 expression vectors described above. To allow a GAL4 fusion protein to drive the expression of the luciferase reporter, the pGL4.35 expression vector and the appropriate GAL4 fusion protein expression vector were bulk transfected in the 293FT cells using standard transfection techniques.
# The day after transfection, cells were plated into 96 well plates, test compound was added and the plates were incubated overnight. Subsequently, the firefly luciferase activity was quantified using luciferase detection reagent and luminescence readout.
# 293FT cells (Invitrogen) were transfected with a GAL4 fusion protein expression vector (as described above) and the transcriptional reporter construct (pGL4.35, Promega). 60 μL of TransIT-293 transfection reagent (Mirus Bio) was added drop wise to 1500 μl Opti-MEM I Reduced Serum Medium (Invitrogen) and incubated at RT (RT) for 5 to 20 minutes. 1500 μL of this reagent mixture was added to 5 μg of GAL4 fusion protein expression vector and 5 μg of the transcriptional reporter construct, and incubated at RT for 20 minutes.
# To harvest 293FT cells from a T75 flask, first the culture medium was taken off the cells. Subsequently, the cells were washed with Phosphate Buffered Saline (PBS) (Lonza), after which the PBS was removed. To dissociate the cells, 1 ml of TrypLE Express (Invitrogen) was added to the flask, followed by incubation at RT until the cells visually started to detach. Cells were collected in 5 mL of assay medium (DMEM culture medium (Lonza), 10% dialyzed FBS (Invitrogen) and Pen/Strep (Lonza)) to achieve a single cell suspension. 10×10^6 cells were spun down and re-suspended in 10 mL of assay medium. Subsequently, the cell suspension was added to the transfection mix tube, and then transferred as a whole to a T75 flask (Greiner), followed by overnight (16-24 hours) incubation at 37° C. and 5% CO2.
# For compound screening, the cells were harvested (as described above) and counted. 13×10^6 cells were spun down, the supernatant was aspirated and the cells were re-suspended in 17.3 mL of assay medium obtaining a cell suspension of 0.75×10^6 cells/mL. 80 μL of cell suspension (60,000 cells) was plated per well into a white, flat bottom, tissue culture treated, 96 well screening plates (Greiner).
# Test compounds were diluted, starting from a 10 mM dimethylsulfoxide (DMSO) stock solution, to serial dilutions in DMSO at 500× the final test concentration. Subsequently, these solutions were diluted to 5× the final test concentration in two 10-fold-dilution steps in assay medium. The final DMSO concentration of the 5× test compound solution was 1%. 20 μL of the 5× test compound solution was added to each test well of the 96 well plate previously plated with 80 μl cell suspension, resulting in the final test concentration with 0.2% DMSO. […]
# [1] = system: IL-17A production in anti-CD3/anti-CD28 stimulated peripheral blood mononuclear cells (PBMCs); experiment: Peripheral blood mononuclear cell (PBMC) IL-17 assay; type: cell-based; settings: 120 h, inhibition of IL-17A production, human PBMCs, 5 days, IL-17 ELISA, read-out: mean pIC50 (converted)
# Protocol: Example inhibitor 5 was tested for its ability to inhibit the IL-17A production in anti-CD3/anti-CD28 stimulated peripheral blood mononuclear cells (PBMCs) isolated from human blood. The assay procedure and results are described below.
# This assay is designed to measure the levels of IL-17A secreted from anti-CD3/anti-CD28 stimulated PBMCs with the aim of measuring RORγ mediated inhibition of IL-17A production.
# The assay medium consists of 90% RPMI 1640 (Lonza), 10% heat inactivated fetal bovin serum (FBS, Lonza) and 100 U/mL penicillin/streptomycin solution.
# Anti-CD3 antibody (BD Pharmingen) was diluted to 10 μg/ml in PBS (Lonza). 30 μL of 10 μg/ml anti-CD3 solution was added to the inner 60 wells, excluding any negative control wells, of a 96-well cell culture treated U-bottom plate (Greiner). Plates were incubated overnight (16-24 hours) at 37° C. and 5% CO2. […]
# After incubation the plates were spun down at 1500 rpm for 4 minutes and the supernatant was collected. Subsequently, the IL-17A levels in the supernatants was determined using an IL-17 ELISA kit (human IL-17 DuoSet, R&D systems) according to manufacturer's protocol.
# The half maximum inhibitory concentration (IC50) values for the test compounds were calculated from the IL-17A signal using GraphPad Prism software (GraphPad Software).
Compound,IC50 (RORγ) [nM],IC50 [1] [nM]
"O=C(NCc1ccc(S(=O)(=O)CC2CC2)cc1)c1ccc(C(O)(C(F)F)C(F)(F)F)cc1 (stereo not shown) [Example 5, N-[[4-(cyclopropylmethylsulfonyl)phenyl]methyl]-4-[1-(difluoromethyl)-2,2,2-trifluoro-1-hydroxy-ethyl]benzamide]",≤ 1000,100
"CCCCOC(c1ccc(C(=O)NCc2ccc(S(=O)(=O)CC3CC3)cc2)cc1)(C(F)(F)F)C(F)(F)F [Example 25, 4-[1-butoxy-2,2,2-trifluoro-1-(trifluoromethyl)ethyl]-N-[[4-(cyclopropylmethylsulfonyl)phenyl]methyl]benzamide]",≤ 100,
"CC(C)OC(c1ccc(C(=O)NCc2ccc(S(=O)(=O)CC3CC3)cc2)cc1)(C(F)(F)F)C(F)(F)F [Example 26, N-[[4-(cyclopropylmethylsulfonyl)phenyl]methyl]-4-[2,2,2-trifluoro-1-isopropoxy-1-(trifluoromethyl)ethyl]benzamide]",≤ 100,
"O=C(NCc1ccc(S(=O)(=O)CC2CC2)cc1)c1ccc(C(OCc2ccccc2)(C(F)(F)F)C(F)(F)F)cc1 [Example 27, 4-[1-benzyloxy-2,2,2-trifluoro-1-(trifluoromethyl)ethyl]-N-[[4-(cyclopropylmethylsulfonyl)phenyl]methyl]benzamide]",≤ 1000,
"COC(c1ccc(C(=O)NCc2ccc(S(=O)(=O)CC3CC3)cc2C)cc1)(C(F)(F)F)C(F)(F)F [Example 28, N-[[4-(cyclopropylmethylsulfonyl)-2-methyl-phenyl]methyl]-4-[2,2,2-trifluoro-1-methoxy-1-(trifluoromethyl)ethyl]benzamide]",≤ 100,
"CCOC(c1ccc(C(=O)NCc2ccc(S(=O)(=O)CC3CC3)cc2C)cc1)(C(F)(F)F)C(F)(F)F [Example 29, N-[[4-(cyclopropylmethylsulfonyl)-2-methyl-phenyl]methyl]-4-[1-ethoxy-2,2,2-trifluoro-1-(trifluoromethyl)ethyl]benzamide]",≤ 100,
"COC(c1ccc(C(=O)NCc2ccc(S(=O)(=O)NC3CC3)cc2)cc1)(C(F)(F)F)C(F)(F)F [Example 30, N-[[4-(cyclopropylsulfamoyl)phenyl]methyl]-4-[2,2,2-trifluoro-1-methoxy-1-(trifluoromethyl)ethyl]benzamide]",≤ 1000,
"CCOC(c1ccc(C(=O)NCc2ccc(S(=O)(=O)NC3CC3)cc2)cc1)(C(F)(F)F)C(F)(F)F [Example 31, N-[[4-(cyclopropylsulfamoyl)phenyl]methyl]-4-[1-ethoxy-2,2,2-trifluoro-1-(trifluoromethyl)ethyl]benzamide]",≤ 1000,
"CCCOC(c1ccc(C(=O)NCc2ccc(S(=O)(=O)NC3CC3)cc2)cc1)(C(F)(F)F)C(F)(F)F [Example 32, N-[[4-(cyclopropylsulfamoyl)phenyl]methyl]-4-[2,2,2-trifluoro-1-propoxy-1-(trifluoromethyl)ethyl]benzamide]",≤ 1000,
"COC(CC(C)(C)C)(c1ccc(C(=O)NCc2ccc(S(=O)(=O)CC3CC3)cc2)cc1)C(F)(F)F (stereo not shown) [Example 33, N-[[4-(cyclopropylmethylsulfonyl)phenyl]methyl]-4-[1-methoxy-3,3-dimethyl-1-(trifluoromethyl)butyl]benzamide]",≤ 100,
"C[C@@H](NC(=O)c1ccc(C(O)(C(F)(F)F)C(F)(F)F)cc1)c1ccc(S(=O)(=O)CC2CC2)cc1 [Example 34, N-[(1R)-1-[4-(cyclopropylmethylsulfonyl)phenyl]ethyl]-4-[2,2,2-trifluoro-1-hydroxy-1-(trifluoromethyl)ethyl]benzamide]",< 10000,
"C[C@H](NC(=O)c1ccc(C(O)(C(F)(F)F)C(F)(F)F)cc1)c1ccc(S(=O)(=O)CC2CC2)cc1 [Example 35, N-[(1S)-1-[4-(cyclopropylmethylsulfonyl)phenyl]ethyl]-4-[2,2,2-trifluoro-1-hydroxy-1-(trifluoromethyl)ethyl]benzamide]",≤ 1000,
"Cc1cc(C(O)(c2ccc(C(=O)NCc3ccc(S(=O)(=O)CC4CC4)cc3)cc2)C(C)C)no1 (stereo not shown) [Example 36, N-[[4-(cyclopropylmethylsulfonyl)phenyl]methyl]-4-[1-hydroxy-2-methyl-1-(5-methylisoxazol-3-yl)propyl]benzamide]",≤ 100,
"Cc1cc(C(O)(c2ccc(C(=O)NCc3ccc(S(=O)(=O)CC4CC4)cc3)cc2)C2CC2)no1 (stereo not shown) [Example 37, 4-[cyclopropyl-hydroxy-(5-methylisoxazol-3-yl)methyl]-N-[[4-(cyclopropylmethylsulfonyl)phenyl]methyl]benzamide]",≤ 1000,
"Cc1cc(C(O)(c2ccc(C(=O)NCc3ccc(S(=O)(=O)CC4CC4)cc3)cc2)C(C)(C)C)no1 (stereo not shown) [Example 38, N-[(4-(cyclopropylmethylsulfonyl)phenyl)methyl]-4-[1-hydroxy-2,2-dimethyl-1-(5-methylisoxazol-3-yl)propyl]benzamide]",≤ 100,
